Key:
[1] = tested on: GDF8; assay: AlphaScreen SureFire p-SMAD3 (Ser423/425) assay, GDF8-stimulated cells; format: cell-based; conditions: Mus musculus, MPC-11; p-SMAD3 (Ser423/425) AlphaScreen in cell lysate; MPC11; GDF8 stimulation; read-out: GDF8: inhibition of GDF8 signaling, GDF pSMAD (MPC11)
Summary of the method: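 Lysate (5 μL) went into 384-well shallow plates with 5 μL of Reaction Buffer, Activation Buffer and AlphaScreen Acceptor bead mix. Plates were sealed, kept dark and shaken for 2 hours at room temperature. Donor beads in dilution buffer (2 μL) were added for another 1½ hours, and p-SMAD3 signal was read on a Synergy-4 or Enspire reader.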

[2] = tested on: TGF-β; assay: AlphaScreen SureFire p-SMAD3 (Ser423/425) assay, TGF-β-stimulated cells; format: cell-based; conditions: Mus musculus; p-SMAD3 (Ser423/425) AlphaScreen in cell lysate; MPC-11; TGF-β stimulation; read-out: TGF-β: inhibition of TGF-β signaling, TGF-β pSMAD (MPC-11)
Summary of the method: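 The p-SMAD-3 (Ser423/425) SureFire assay measured phosphorylation of endogenous SMAD-3 in cell lysates. Cells were plated overnight in collagen-coated plates, exposed to three-fold serially diluted compounds for about 10 minutes, then stimulated with TGFβ. Lysates (5 μL) received acceptor bead mix for 2 hours, then donor beads for 1½ hours before AlphaScreen reading.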

Question: With `Fc1ccc(-c2nc3n(c2-c2ccc4[nH]ncc4c2)CCC3)cc1F` [Compound 205, 5-(2-(3,4-difluorophenyl)-6,7-dihydro-5H-pyrrolo[1,2-a]imidazol-3-yl)-1H-indazole] as the compound, how does the IC50 [1] read?
Answer: Its IC50 is 100 to 1000 nM.

Question: What about the IC50 [2] of the same compound?
Answer: Its IC50 is 100 to 1000 nM.

Question: For `Fc1ccc(-c2nc3n(c2-c2ccc4cn[nH]c4c2)CCC3)cc1F` [Compound 206, 6-(2-(3,4-difluorophenyl)-6,7-dihydro-5H-pyrrolo[1,2-a]imidazol-3-yl)-1H-indazole], which IC50 [1] is on record?
Answer: Its IC50 is 100 to 1000 nM.

Question: What about the IC50 [2] of the same compound?
Answer: The IC50 was greater than 1000 nM.

Question: `Fc1ccc(-c2nc3n(c2-c2ccc4ncsc4c2)CCC3)cc1F` [Compound 207, 6-(2-(3,4-difluorophenyl)-6,7-dihydro-5H-pyrrolo[1,2-a]imidazol-3-yl)benzo[d]thiazole] was tested. Which IC50 [1] did it give?
Answer: The IC50 was 100 to 1000 nM.

Question: What about the IC50 [2] of the same compound?
Answer: The IC50 was 100 to 1000 nM.

Question: `Fc1ccc(-c2nc3n(c2-c2ccc4nccnc4c2)CCC3)cc1F` [Compound 208, 6-(2-(3,4-difluorophenyl)-6,7-dihydro-5H-pyrrolo[1,2-a]imidazol-3-yl)quinoxaline] was tested. Which IC50 [1] did it give?
Answer: Its IC50 is 100 to 1000 nM.

Question: And the IC50 [2]?
Answer: Its IC50 is greater than 1000 nM.

Question: Which results are given for `Fc1cccc(-c2nc3n(c2-c2ccc4ncccc4c2)CCC3)c1` [Compound 209, 6-(2-(3-fluorophenyl)-6,7-dihydro-5H-pyrrolo[1,2-a]imidazol-3-yl)quinoline]?
Answer: IC50 [1]: 100 to 1000 nM; IC50 [2]: > 1000 nM

Question: Which IC50 [1] does the source give for `Fc1ccccc1-c1nc2n(c1-c1ccc3ncccc3c1)CCC2` [Compound 210, 6-(2-(2-fluorophenyl)-6,7-dihydro-5H-pyrrolo[1,2-a]imidazol-3-yl)quinoline] here?
Answer: Its IC50 is 100 to 1000 nM.

Question: What about the IC50 [2] of the same compound?
Answer: Its IC50 is greater than 1000 nM.

Question: For `Fc1ccc(-c2nc3n(c2-c2ccc4ncccc4c2)CCC3)c(F)c1` [Compound 211, 6-(2-(2,4-difluorophenyl)-6,7-dihydro-5H-pyrrolo[1,2-a]imidazol-3-yl)quinoline], which IC50 [1] is on record?
Answer: Its IC50 is 100 to 1000 nM.

Question: And the IC50 [2]?
Answer: The IC50 was 100 to 1000 nM.

Question: Which IC50 [1] does the source give for `Fc1cccc(F)c1-c1nc2n(c1-c1ccc3[nH]ncc3c1)CCC2` [Compound 212, 5-(2-(2,6-difluorophenyl)-6,7-dihydro-5H-pyrrolo[1,2-a]imidazol-3-yl)-1H-indazole] here?
Answer: The IC50 was greater than 1000 nM.

Question: And the IC50 [2]?
Answer: Its IC50 is greater than 1000 nM.

Question: `Fc1cccc(F)c1-c1nc2n(c1-c1ccc3cn[nH]c3c1)CCC2` [Compound 213, 6-(2-(2,6-difluorophenyl)-6,7-dihydro-5H-pyrrolo[1,2-a]imidazol-3-yl)-1H-indazole] was tested. Which IC50 [1] did it give?
Answer: Its IC50 is greater than 1000 nM.

Question: What about the IC50 [2] of the same compound?
Answer: The IC50 was greater than 1000 nM.

Question: What does the source list for `Fc1cccc(F)c1-c1nc2n(c1-c1ccc3nccnc3c1)CCC2` [Compound 215, 6-(2-(2,6-difluorophenyl)-6,7-dihydro-5H-pyrrolo[1,2-a]imidazol-3-yl)quinoxaline]?
Answer: IC50 [1]: > 1000 nM; IC50 [2]: > 1000 nM

Question: With `Fc1cccc(F)c1-c1nc2n(c1-c1ccc3ncccc3c1)CCC2` [Compound 216, 6-(2-(2,6-difluorophenyl)-6,7-dihydro-5H-pyrrolo[1,2-a]imidazol-3-yl)quinoline] as the compound, how does the IC50 [1] read?
Answer: Its IC50 is greater than 1000 nM.

Question: And the IC50 [2]?
Answer: Its IC50 is greater than 1000 nM.

Question: What does the source list for `Fc1cc(F)c(-c2nc3n(c2-c2ccc4cn[nH]c4c2)CCC3)cc1F` [Compound 217, 6-(2-(2,4,5-trifluorophenyl)-6,7-dihydro-5H-pyrrolo[1,2-a]imidazol-3-yl)-1H-indazole]?
Answer: IC50 [1]: 100 to 1000 nM; IC50 [2]: 100 to 1000 nM

Question: Which IC50 [1] does the source give for `Fc1cc(F)c(-c2nc3n(c2-c2ccc4ncsc4c2)CCC3)cc1F` [Compound 218, 6-(2-(2,4,5-trifluorophenyl)-6,7-dihydro-5H-pyrrolo[1,2-a]imidazol-3-yl)benzo[d]thiazole] here?
Answer: Its IC50 is less than 50 nM.

Question: And the IC50 [2]?
Answer: The IC50 was 50 to 100 nM.

Question: Which results are given for `Fc1cc(F)c(-c2nc3n(c2-c2ccc4nccnc4c2)CCC3)cc1F` [Compound 219, 6-(2-(2,4,5-trifluorophenyl)-6,7-dihydro-5H-pyrrolo[1,2-a]imidazol-3-yl)quinoxaline]?
Answer: IC50 [1]: < 50 nM; IC50 [2]: 100 to 1000 nM

Question: Which IC50 [1] does the source give for `Fc1cc(F)c(-c2nc3n(c2-c2ccc4[nH]ncc4c2)CCC3)cc1F` [Compound 220, 5-(2-(2,4,5-trifluorophenyl)-6,7-dihydro-5H-pyrrolo[1,2-a]imidazol-3-yl)-1H-indazole] here?
Answer: The IC50 was 50 to 100 nM.

Question: And the IC50 [2]?
Answer: Its IC50 is 100 to 1000 nM.

— patent US10696693B2, “Fused imidazole derivatives as TGF-beta inhibitors” (Rigel Pharmaceuticals, Inc., priority 2014, dated 2020)
